The numbers were not newly measured in paper PMC6764291 (Frontiers in Oncology, 2019), which cites them from elsewhere.

Series [1] relates to mutant p53 cells. The following applies: in vitro, considerably higher concentrations than required for wt p53 cell lines; cited from earlier work. From the text: As expected, the two p53 mutated cell lines did n ...
For series [2], the system named is p53. On the set-up: method as in PMID 14704432. To be noted: cited from earlier work.

As for `COc1ccc(C2=N[C@H](c3ccc(Cl)cc3)[C@H](c3ccc(Cl)cc3)N2C(=O)N2CCN(C(C)=O)CC2)c(OC(C)C)c1` [Nutlin-1], the “effect on mutant p53 cells” value in series [1] is “Some effect”.

For `COc1ccc(C2=N[C@@H](c3ccc(Cl)cc3)[C@@H](c3ccc(Cl)cc3)N2C(=O)N2CCNC(=O)C2)c(OC(C)C)c1` [Nutlin-3], the p53-expression result in series [2] is reported as “increased p53-expression was directly correlated to increasing concentrations”.
